Reference: ChEMBL document CHEMBL1148244, “Inactivation of gamma-aminobutyric acid aminotransferase by (S)-4-amino-4,5-dihydro-2-furancarboxylic acid does not proceed by the expected aromatization mechanism” (Bioorg Med Chem Lett, 2004)

Target: 4-aminobutyrate aminotransferase (Sus scrofa) (UniProt P80147)
Test: Kinact for pyridoxal 5'-phosphate (PLP)-dependent Gamma-amino-N-butyrate transaminase at pH 7.4

Sequence of 4-aminobutyrate aminotransferase (Sus scrofa) (P80147 whole entry, looked up): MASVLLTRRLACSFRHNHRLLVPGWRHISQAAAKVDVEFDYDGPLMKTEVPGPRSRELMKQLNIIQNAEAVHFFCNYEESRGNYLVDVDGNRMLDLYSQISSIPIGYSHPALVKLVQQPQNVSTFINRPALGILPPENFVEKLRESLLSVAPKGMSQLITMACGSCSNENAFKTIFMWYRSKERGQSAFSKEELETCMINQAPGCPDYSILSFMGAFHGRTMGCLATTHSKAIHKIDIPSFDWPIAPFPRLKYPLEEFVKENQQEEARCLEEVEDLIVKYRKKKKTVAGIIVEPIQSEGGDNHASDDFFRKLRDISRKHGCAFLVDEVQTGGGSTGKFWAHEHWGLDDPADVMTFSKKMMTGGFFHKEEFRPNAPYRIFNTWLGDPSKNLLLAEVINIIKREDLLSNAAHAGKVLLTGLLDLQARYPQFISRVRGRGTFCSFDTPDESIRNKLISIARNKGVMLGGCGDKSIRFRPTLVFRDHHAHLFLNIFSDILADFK

- K inact: 2.4 min⁻¹
SMILES: NC1C=C(C(=O)O)OC1 (stereo unspecified)
